Consider six molecules from patent US9856270B2, “Dolutegravir salts” (Ratiopharm GmbH, priority 2013, dated 2018).

What all share (format): physicochemical
Data set [1] can be described thus: Determination of the dissolution, 1st experiment (approx. 350 mg in 5 ml solvent, 37° C., approx. 500 rpm, HPLC/UV). The settings on record: for concentration: 37° C. As for the experimental part:
(§1) In the following examples, anhydrous Dolutegravir Na as disclosed in WO2010068253 is employed.
Approx. 350 mg test substance was weighed into a glass vial, followed by addition of 5 ml solvent. A stirring bar was added, the vial was fixed in a water bath at 37° C. and the suspension was stirred with approx. 500 rpm. After 1 h and 24 h, samples were withdrawn, filtered through a 0.2 μm disposable filter, 50 μl of the clear filtrate were diluted with 950 μl DMSO and 2 μl thereof were analyzed by HPLC/UV.
(§2) HPLC/UV-Method for Quantification of Dolutegravir • Instrument: Agilent 1200 (G3324) • Method: DOLUTEGRAVIR-SOL-G3324.M • Column: YMC Triart C18, 100*3.0 mm, 3.0μ • Flow: 0.6 ml/min. • Temperature: 40.0° C. • Eluent • A: acetonitrile • B: 0.2% formic acid+0.1% Heptafluorobutyric acid (HFBA)
(§3) A calibration curve was established by linear regression analysis of concentration/peak area data pairs obtained by twofold analysis of a set of calibration solutions containing dolutegravir at concentrations between 10 μg/ml and 1,000 μg/ml. In case that the peak area of dolutegravir in an analyzed sample exceeded the upper limit of the calibration range, the sample was diluted and re-analyzed.

Data set [2] is described as follows: Determination of the dissolution, 2nd experiment (approx. 210 mg in 3 ml solvent, 37° C., approx. 250 rpm, HPLC/UV). As for the experimental part: as §1
Approx. 210 mg test substance was weighed into a glass vial, followed by addition of 3 ml solvent. A stirring bar was added, the vial was fixed in a water bath at 37° C. and the suspension was stirred with approx. 250 rpm. After 5, 15 and 60 min, samples were withdrawn, filtered through a 0.2 μm disposable filter, 50 μl of the clear filtrate were diluted with 950 μl DMSO and 2 μl thereof were analyzed by HPLC/UV.
as §2, §3

A short description of data set [3]: Storage stability of solid state forms (polymorphic conversion, XRPD).
Data set [4] can be described thus: Dissolution profile of tablet formulations (900 ml 0.1 N HCl, paddle, 100 rpm, 37° C.). As to conditions: tablets, FIG. 24. The method, then: The dissolution profile of the above potassium salt formulation in 900 ml of 0.1 N HCl, paddle (no sinker) at 100 rpm, 37° C. was tested. An aqueous solution comprising Pharmacoat 603 was prepared. The active, Granulac 200, SDS, Avicel PH 101 and Ac-Di-Sol were granulated with the before prepared solution. The obtained granules were sieved through 1650 μm mesh size and subsequently dried at 40° C. After sieving the dried granules through 630 μm mesh size, Prosolv and Ac-Di-Sol were added. The mixture was blended for 10 minutes in a Turbula […] tumble mixer. After addition of Magnesium stearate, blending was continued for 3 minutes. Finally, the blend was compressed into tablets on an eccentric press Ek0 with a 9 mm tablet punch. The dissolution profile of the above sodium salt formulation in 900 ml of 0.1 N HCl, paddle (no sinker) at 100 rpm, 37° C. was tested.

[5] abbreviates: solvent 50 mM KH2PO4, pH 6.8, 5 min, potassium salt.
Where [6] appears, read: solvent 50 mM KH2PO4, pH 6.8, 15 min, potassium salt.
[7] abbreviates: solvent 50 mM KH2PO4, pH 6.8, 60 min, potassium salt.
[8] abbreviates: solvent 0.1 N HCl, 5 min, potassium salt.
[9] abbreviates: solvent 0.1 N HCl, 15 min, potassium salt.
[10] abbreviates: solvent 0.1 N HCl, 60 min, potassium salt.
The mark [11] stands for this setting: solvent demineralized water, 5 min, potassium salt.
Where [12] appears, read: solvent demineralized water, 15 min, potassium salt.
Where [13] appears, read: solvent demineralized water, 60 min, potassium salt.

Structures can show the parent of a compound that is named as a salt.

Turning to `C[C@@H]1CCO[C@H]2Cn3cc(C(=O)NCc4ccc(F)cc4F)c(=O)c(O)c3C(=O)N12` [Dolutegravir-Na, reference compound], the concentration was 595 µg/mL in data set [1] (solvent 20 mM Sodium acetate (NaAc) pH 4.5, 1 h); 634 µg/mL in data set [1] (solvent 20 mM Sodium acetate (NaAc) pH 4.5, 24 h); 894 µg/mL in data set [1] (solvent 50 mM KH2PO4 pH 6.8, 1 h); 918 µg/mL in data set [1] (solvent 50 mM KH2PO4 pH 6.8, 24 h); 84 µg/mL in data set [1] (solvent 0.1M HCl pH1.2, 1 h); 412 µg/mL in data set [1] (solvent 0.1M HCl pH1.2, 24 h). Besides, the concentration turned out to be 270 µg/mL in data set [2] (solvent 50 mM KH2PO4, pH 6.8, 5 min); 1190 µg/mL in data set [2] (solvent 50 mM KH2PO4, pH 6.8, 15 min); 1240 µg/mL in data set [2] (solvent 50 mM KH2PO4, pH 6.8, 60 min); 330 µg/mL in data set [2] (solvent 0.1 N HCl, 5 min, listed as Dolutegravir-Na (anhydrous)); 420 µg/mL in data set [2] (solvent 0.1 N HCl, 15 min, listed as Dolutegravir-Na (anhydrous)); 400 µg/mL in data set [2] (solvent 0.1 N HCl, 60 min, listed as Dolutegravir-Na (anhydrous)). The concentration in data set [2] (solvent demineralized water, 5 min) was 3300 µg/mL; in data set [2] (solvent demineralized water, 15 min) it was 3430 µg/mL; in data set [2] (solvent demineralized water, 60 min) it was 3500 µg/mL.
On to `C[C@@H]1CCO[C@H]2Cn3cc(C(=O)NCc4ccc(F)cc4F)c(=O)c(O)c3C(=O)N12` [Dolutegravir-K (Form VII), Dolutegravir potassium salt], for which the “stable under storage conditions (time)” value in data set [3] (25° C. and 60% RH, 30° C. and 65% RH and 40° C. and 75% RH) is on record as “at least 8 weeks”. Also, the concentration turned out to be 22000 µg/mL in data set [2] (setting [5]); 23900 µg/mL in data set [2] (setting [6]); 23300 µg/mL in data set [2] (setting [7]); 80 µg/mL in data set [2] (setting [8]); 23780 µg/mL in data set [2] (setting [9]); 25930 µg/mL in data set [2] (setting [10]). Further, the values for the concentration in data set [2] (setting [11]), in data set [2] (setting [12]) and in data set [2] (setting [13]) were 39500 µg/mL, 44000 µg/mL and 44100 µg/mL, respectively.
With `C[C@@H]1CCO[C@H]2Cn3cc(C(=O)NCc4ccc(F)cc4F)c(=O)c(O)c3C(=O)N12` [Dolutegravir-K (amorphous), Dolutegravir potassium salt], the “stable under storage condition (time)” value in data set [3] (40° C./75% RH) is reported as “at least 12 weeks”. In addition, the concentration came to 39100 µg/mL in data set [2] (setting [5]); 40900 µg/mL in data set [2] (setting [6]); 60100 µg/mL in data set [2] (setting [7]); 300 µg/mL in data set [2] (setting [8]); 21260 µg/mL in data set [2] (setting [9]); 15400 µg/mL in data set [2] (setting [10]). Moreover, the concentration in data set [2] (setting [11]) is 55600 µg/mL; in data set [2] (setting [12]), 55100 µg/mL; in data set [2] (setting [13]), 62300 µg/mL.
As for `C[C@@H]1CCO[C@H]2Cn3cc(C(=O)NCc4ccc(F)cc4F)c(=O)c(O)c3C(=O)N12` [Dolutegravir potassium form IV, Dolutegravir potassium salt], in data set [3] (45° C./75% relative humidity), the “stable upon storage (time)” value is listed as “at least 8 weeks”.
Regarding `C[C@@H]1CCO[C@H]2Cn3cc(C(=O)NCc4ccc(F)cc4F)c(=O)c(O)c3C(=O)N12` [Dolutegravir potassium salt], the “dissolution rate of a pharmaceutical composition compared to the sodium salt” value in data set [4] is “faster and/or higher dissolution rate”. For the same molecule, the “dissolution compared to the sodium salt” value in data set [1] (under certain conditions as depicted in Example 9) is “improved dissolution”.
Turning to `C[C@@H]1CCO[C@H]2Cn3cc(C(=O)NCc4ccc(F)cc4F)c(=O)c(O)c3C(=O)N12` [Dolutegravir-K (Form VI), Dolutegravir potassium salt], the concentration came out at 21770 µg/mL in data set [1] (solvent 20 mM Sodium acetate (NaAc) pH 4.5, 1 h, potassium salt); 16930 µg/mL in data set [1] (solvent 20 mM Sodium acetate (NaAc) pH 4.5, 24 h, potassium salt); 32580 µg/mL in data set [1] (solvent 50 mM KH2PO4 pH 6.8, 1 h, potassium salt); 33440 µg/mL in data set [1] (solvent 50 mM KH2PO4 pH 6.8, 24 h, potassium salt); 20350 µg/mL in data set [1] (solvent 0.1M HCl pH1.2, 1 h, potassium salt); 20270 µg/mL in data set [1] (solvent 0.1M HCl pH1.2, 24 h, potassium salt).
